# Tests used:
# [1] = test system: L3 larvae of Anisakis type I; settings: 200, 300 and 500 ppm, in vitro, 36° C.
# Excerpt: (§1) The objective of example 3 was to examine the activity of propyl propane thiosulphonate (PTSO) and propyl propane thiosulfinate (PTS) against L3 larvae of type I Anisakis and Hysterotylacium aduncum to explore the possible use of these compounds for prophylaxis treatments.
# (§2) L3 of Anisakis type I and Hysterotylacium aduncum were collected by dissecting the fish Micromesistius poutassou (blue whiting) and Trachurus trachurus (mackerel) fished in the Cantabric sea, and selecting only larvae with a length greater than (>) 2.0 cm in the case of Anisakis, and greater than 0.8 cm for Hysterotylacium.
# (§3) Larvae were axenised in antibiotic solution (Iglesias et al., 1997), introduced into polystyrene plate wells with 2 ml of sterile solution of 0.9% NaCl and the different concentrations of PTS alone, PTSO alone, and both PTS and PTSO (75, 200, 300 and 500 ppm) and then incubated at 36° C. in a 5% CO2 atmosphere. As controls, larvae were assayed without test compound under identical experimental conditions, and using only the solvent DMSO 1% (Dimethyl sulfoxide). Larvae were examined under stereoscopic microscope at 4, 8, 24, and 48 hours to test the biocidal effect of the compounds. Larvae with no mobility at all were considered dead. Each dilution was tested three times on larvae from fish captured on different days.
# [2] = test system: L3 larvae of Hysterotylacium aduncum; settings: 75 ppm, in vitro, 36° C.
# Excerpt: as §1, §2, §3
# Icthyobodo necator = test: oral treatment of Ichthyobodosis in rainbow trout, PTSO administered into feed; format: in vivo; settings: for % infestation High / % infestation Low / % infestation minimal / % infestation Moderate / % infestation zero: 24 hours after end of assay; for % infestation High: High = more than 50 individuals per microscope field; for % infestation Low: Low = more than 1 individual, less than 10 per field; for % infestation minimal: Minimal = only 1 individual detected; for % infestation Moderate: Moderate = 10 to 50 per field; for % infestation zero: Zero = not detected
# Protocol: In this example, a study of oral treatments of Ichthyobodosis in rainbow trout with different concentrations of Propyl propane thiosulphonate (PTSO) administered into feed was conducted.
# Rainbow trout Oncornynchus mykiss were obtained from a local fish farm and acclimatized for at least 10 days before assay in 100 l tanks with aeration in closed systems of water (15±2° C., pH 7-7.5). The natural light-dark cycle was simulated (12 h light: 12 h dark). Fish were fed twice per day with a commercial feed (EFICO, Biomar, Spain). Parasite-free fish were experimentally infested by holding the parasite-free fish 25 days in a 100 l tank that also contained fish showing high-intensity infestation (20 uninfected fish to 10 infected fish).
# Fish were anaesthetized by immersion in bath with 100 ppm of Tricaine methanesulfonate until respiration became weak. A mucus sample was then taken by gently scraping the body surface after examination of a sample area of 24×32 mm. The sample was mixed with 30 μl of distilled water on a slide, cover-slipped and examined to optic microscopy (400×).
# Each treatment was assayed in 20 infected fish maintained in 100 L tanks with aeration in closed systems of water. The fish received feed containing three different treatments. The first group received a diet with 100 ppm of Propyl propane thiosulphonate (PTSO), the second received a diet supplemented with 300 ppm of PTSO, and the third received a diet with 300 ppm of metronidazole. All treatments were applied during a 10 day period. In all cases, feed was supplied at 2% of total body weight per day. Simultaneously, a positive control assay (also on 20 infected fish treated identically, but without any PTSO) and negative control assay (with 20 uninfected animals) were performed. Tanks conditions were identical to those during the acclimatization period.
# Throughout the assay period the fish were monitored regularly to ensure that the fish were eating the food, and to check for signs of toxicity.
# Of note, infestation intensity was based on a 5-point scale, as follows: Zero equals Ichthyobodo necator not being detected in the sample; Minimal equals only 1 individual of I. necator being detected in the sample; Low equals more than 1 individual of parasite being detected in the sample, the average number per microscope field being less than 10; Moderate equals an average number of individuals per microscope field of 10 to 50; High equals an average number of individuals per microscope field of more than 50.
SMILES,anti-parasitic activity (mortality) [1],anti-parasitic activity (mortality) [2],% infestation High (Icthyobodo necator; 300 ppm in feed for 10 days) [%],% infestation Low (Icthyobodo necator; 300 ppm in feed for 10 days) [%],% infestation minimal (Icthyobodo necator; 300 ppm in feed for 10 days) [%],% infestation Moderate (Icthyobodo necator; 300 ppm in feed for 10 days) [%],% infestation zero (Icthyobodo necator; 300 ppm in feed for 10 days) [%],% infestation High (Icthyobodo necator; 100 ppm in feed for 10 days) [%],% infestation Low (Icthyobodo necator; 100 ppm in feed for 10 days) [%],% infestation minimal (Icthyobodo necator; 100 ppm in feed for 10 days) [%],% infestation Moderate (Icthyobodo necator; 100 ppm in feed for 10 days) [%],% infestation zero (Icthyobodo necator; 100 ppm in feed for 10 days) [%],"antiparasitic activity, infestation intensity (Icthyobodo necator; oral in feed)"
"CCCS[S+]([O-])CCC (centres unmarked) [PTS, propyl propane thiosulfinate]",significant anti-parasitic activity,significant anti-parasitic activity,–,–,–,–,–,–,–,–,–,–,–
"Cc1ncc([N+](=O)[O-])n1CCO [Metronidazole, metronidazole, reference compound]",–,–,15,7,12,20,46,–,–,–,–,–,–
"CCCSS(=O)(=O)CCC [PTSO, propyl propane thiosulfonate]",significant anti-parasitic activity,significant anti-parasitic activity,25,8,5,7,55,35,18,12,30,5,significant reduction of infestation intensity
